Laboratory results taken from patent US7781393B2, “Methods for inhibiting tumor cell growth” (Dana-Farber Cancer Institute, Inc., priority 2004, dated 2010).

Legend:
MM-1S cells [1] = test: Immunoblotting of anti-apoptotic signaling cascades; format: cell-based, human; conditions: 500 nM, serum-containing medium
Method: Flow cytometric analyses for IGF-1R, and IGF-2R were performed as previously described on a EPICS-XL-MCL flow cytometer (Beckman Coulter). Previously described protocols were applied for immunoblotting analyses; TRAP telomerase activity assay; 20S proteasome chymotryptic activity assay; DNA binding activity ELISAs for quantitative assessments of NF-κB and HIF-1a transcriptional activities. VEGF and IGF-1 ELISAs were performed according to manufacturer's instructions (R&D Systems, Minneapolis, Minn.).

CD138+ MM cells = test: Flow cytometric analysis of unpurified bone marrow mononuclear cells; format: cell-based, human; conditions: 500 nM, 72 hours, 20% serum; BM stromal cells not suppressed
MM-1S-Luc human MM cells = test: Model of diffuse skeletal MM lesions, bioluminescence imaging and survival; format: in vivo
Method: Briefly, male (6 to 8-week old) SCIDI/NOD mice (Jackson Laboratories, Bar Harbor, Me.) were sublethally irradiated (300 rads) using ^137CS γ-irradiator source. After 3-6 hours, 5×10^6 MM-1S-luc^+ cells in 100 μL of phosphate-buffered saline (PBS) was injected via the tail vein into each mouse. Mice were monitored daily for changes in their body weight, signs of infection, and paralysis, and weekly by whole-body bioluminescence imaging utilizing the In Vivo Imaging System (IVIS, Xenogen Corp, Alameda, Calif.) with total imaging time of 2 min, bin 2. Total body bioluminescence was quantified by integrating the photonic flux (photons/sec) through a standardized region of interest encompassing each mouse (Living Images, Xenogen). […] Melphalan (Alkeran, GlaxoSmithKline, Research Triangle Park, N.C.) was formulated according to manufacturer's instructions, and was administered by i.p. injection. All animal studies were approved by the Dana-Farber Cancer Institute Animal Care and Use Committee.
Statistical significance for in vitro assay results was examined by 2-way analysis of variance, followed by Duncan's post-hoc test. Statistical significance for bioluminescence imaging studies was determined by two-tailed student's t-test. In all analyses, P<0.05 was considered statistically significant. For assessment of in vivo anti-tumor activity, the overall survival of mice was defined as the time between i.v. injection of tumor cells and sacrifice or, death and was compared across different treatment groups with Kaplan-Meier survival analysis.
The in vivo anti-tumor activity of IGF-1R inhibition in a mouse xenograft model of MM was examined. The MM cell line MM-1S was engineered to stably express firefly luciferase fused to a selectable marker (neomycin phosphotransferase or enhanced GFP). Sub-lethally irradiated NOD/SCID mice were injected intravenously with MM-1S-Luc cells and tumor distribution was followed by serial whole-body non-invasive imaging of visible light emitted by luciferase-expressing tumor cells upon injection of mice with luciferin.
Sublethally irradiated NOD/SCID mice were injected with MM1S-Luc cells, and serially imaged to monitor tumor burden. After 2-3 weeks, cohorts of mice with similarly increasing tumor burden were divided into control and treatment groups.

[2] = tested on: 58 hematologic and solid tumor cell lines; test: MTT colorimetric survival assay, panel of hematologic and solid tumor cell lines; format: cell-based, human; conditions: all cell lines; 0-10 μM for 72 hours
BM stromal cells (BMSCs) = test: Viability of bone marrow stromal cells (MTT); format: cell-based, human; conditions: 500 nM for 72 hrs
Method: Primary MM patient samples were freshly isolated from bone marrow aspirates from patients undergoing diagnostic or restaging bone marrow aspirates under an IRB-approved protocol. MM cells were purified using custom-made RosetteSep cocktail of monoclonal antibodies (mAb's) (StemCell Technologies Inc, Vancouver, Canada) for negative selection of CD138^+ MM cells. The CD138^− fraction of the MM cell purification process was cultured in 20% FBS-supplemented media for isolation of the adherent bone marrow stromal cells. Peripheral blood B cells were isolated by ficoll-density centrifugation of peripheral blood samples from MM patients. […] […] At the end of each treatment, cells were incubated with 1 mg/ml MTT for 4 hours at 37° C.; a mixture of isopropanol and 1N HCl (23:2, v/v) was then added under vigorous pipetting to dissolve the formazan crystals. Dye absorbance (A) in viable cells was measured at 570 nm, with 630 nm as a reference wavelength. Cell survival was estimated as a percentage of the value of untreated controls. All experiments were repeated at least three times, and each experimental condition was repeated at least in quadruplicate wells in each experiment.

[3] = tested on: PC-3 prostate cancer cells; test: MTT assay of responsiveness to IL-6; format: cell-based, human; conditions: co-treatment 500 nM, serum, 72 hours
Method: (§1) Cell survival of IGF-1R inhibitor-treated cells was examined using the 3-(4,5-Dimethylthiazol-2-yl)-2,5-Diphenyltetrazolium Bromide (MTT) calorimetric assay. […] At the end of each treatment, cells were incubated with 1 mg/ml MTT for 4 hours at 37° C.; a mixture of isopropanol and 1N HCl (23:2, v/v) was then added under vigorous pipetting to dissolve the formazan crystals. Dye absorbance (A) in viable cells was measured at 570 nm, with 630 nm as a reference wavelength. Cell survival was estimated as a percentage of the value of untreated controls. All experiments were repeated at least three times, and each experimental condition was repeated at least in quadruplicate wells in each experiment.

INA-6 MM cells = test: MTT assay of responsiveness to IL-6; format: cell-based, human; conditions: co-treatment 500 nM, serum, 72 hours
Method: as §1

MM-1S cells [4] = test: In vitro sensitization of MM-1S cells to anti-cancer drugs; format: cell-based, human; conditions: ADW-742 750 nM or α-IR3 2 μg/ml for final 24 hours
Method: Cells were cultured in the presence of 10% FBS, and results are expressed as mean ±SD of 3 independent experiments.
as §1

MM cell lines = test: MTT colorimetric survival assay, serum-stimulated MM cell lines; format: cell-based, human
Method: as §1

[5] = monotherapy 10 mg/kg i.p. twice daily

Nc1ncnc2c1c(-c1cccc(OCc3ccccc3)c1)cn2[C@H]1C[C@H](CN2CCCC2)C1 [ADW-742, trans-5-(3-benzyloxy-phenyl)-7-(3-pyrrolidin-1-ylmethyl-cyclobutyl)-7H-pyrrolo[2,3-d]pyrimidin-4-ylamine]
Akt, MEK1/2 and FKHRL-1 phosphorylation (MM-1S cells [1]): early suppression
intracellular levels of Akt, Bmx, IKK-α and RANKL (MM-1S cells [1]): decrease
CD138+ population of malignant cells (CD138+ MM cells): significant suppression
treatment-related toxicity (MM-1S-Luc human MM cells; 10 mg/kg i.p. twice daily): no other significant treatment-related toxicity
median overall survival (MM-1S-Luc human MM cells; 10 mg/kg i.p. twice daily for 19 days, control 21 days, P=0.02 log-rank): 38 days
anti-tumor activity, pulsatile administration (MM-1S-Luc human MM cells; 10 mg/kg i.p. twice daily, 4 days per week, alone): no significant anti-tumor activity
body weight (MM-1S-Luc human MM cells; 10 mg/kg i.p. twice daily, between treatment groups, P=0.82): no difference in body weight
survival, combination with melphalan (MM-1S-Luc human MM cells; melphalan 2.5 mg i.p once a week followed by ADW-742 10 mg/kg i.p. twice daily, 4 days per week): synergistic effect in prolonging the survival of mice
survival of mice (MM-1S-Luc human MM cells; [5]): prolongs the survival of mice
tumor growth (MM-1S-Luc human MM cells; [5]): significantly suppresses tumor growth
anti-tumor efficacy, further studies (MM-1S-Luc human MM cells; second study same i.p. dosing, third study orally 50 mg/kg twice daily): Consistent results
inhibition of serum-induced cell growth [2]: Dose-dependent inhibition
viability of BM stromal cells (BM stromal cells (BMSCs)): does not significantly affect
responsiveness to IL-6 [3]: abrogated
responsiveness to IL-6 (INA-6 MM cells): abrogated
sensitivity of MM-1S cells to dexamethasone (MM-1S cells [4]; dexamethasone 0.1 μM 72 hrs): enhances the sensitivity
sensitivity of MM-1S cells to doxorubicin (MM-1S cells [4]; doxorubicin 50 ng/mL 48 hrs): enhance the sensitivity
sensitivity of MM-1S cells to melphalan (MM-1S cells [4]; melphalan 1 μM 48 hrs): enhance the sensitivity
IC50 (MM cell lines; Homo sapiens, values generally in this range, 0-10 μM for 72 hours, read-out: IC50, serum-induced cell growth of MM cell lines): 100 to 500 nM
activity against MM cell lines with known resistance to conventional or investigational anti-cancer agents (MM cell lines; also primary tumor cells from MM patients with multi-drug resistant disease): active
